Test results from ChEMBL document CHEMBL3797111, “Substituted Indazoles as Nav1.7 Blockers for the Treatment of Pain” (J Med Chem, 2016).

Legend:
Assay type in all cases: ADME, organism-based
Details in all cases: in vivo
Plasma [1] = assay: Plasma concentration in monoiodoacetate-induced osteoarthritis rat model at 3 mg/kg, po
Plasma [2] = assay: Plasma concentration in monoiodoacetate-induced osteoarthritis rat model at 10 mg/kg, po
Plasma [3] = assay: Plasma concentration in monoiodoacetate-induced osteoarthritis rat model at 30 mg/kg, po
[4] = Bioavailability in Sprague-Dawley rat by HPLC-MS/MS analysis

Row | Cp (Plasma [1]) | Cp (Plasma [2]) | Cp (Plasma [3]) | bioavailability [4] | SMILES
1 | 2700 ng/mL | 6800 ng/mL | 10500 ng/mL | 83% | O=C(CN1CCN(c2cccc3c2cnn3-c2ccccc2F)C1=O)N1CC[C@H](F)C1
2 | 50 ng/mL | 380 ng/mL | 1050 ng/mL | 17% | O=C1NCCN1CCOc1nn(-c2ccccc2F)c2ccc(F)cc12
3 | – | – | – | 94% | O=C(CN1CCN(c2cccc3c2cnn3-c2ccccc2F)C1=O)N1CCCC1
4 | – | – | – | 84% | O=C1CN(c2cccc3c2cnn3-c2ccccc2F)CCN1CC(=O)N1CC[C@H](F)C1
5 | – | – | – | 35% | O=c1[nH]ccn1CCOc1nn(-c2ccccc2F)c2ccc(F)cc12
6 | – | – | – | 22% | O=C(COc1nn(-c2ccccc2F)c2ccc(F)cc12)N1CCOCC1
7 | – | – | – | 82% | CC(C)CC(=O)CN1CCN(c2cccc3c2cnn3-c2ccccc2F)C1=O

The remaining lines, values behind:

Row | SMILES | Cp (Plasma [1]) | Cp (Plasma [2]) | Cp (Plasma [3]) | bioavailability [4]
8 | CC(Oc1nn(-c2ccccc2F)c2ccc(F)cc12)C(=O)N1CCOCC1 (configuration not stated) | – | – | – | 27%
9 | Fc1ccc2c(c1)c(OCCn1ccnc1)nn2-c1ccccc1F | – | – | – | 28%
10 | O=C1NCCN1CCOc1nn(-c2ccc(F)cc2F)c2ccc(F)cc12 | – | – | – | 71%
11 | O=C1NCCN1CCOc1nn(-c2ccc(F)cc2)c2ccc(F)cc12 | – | – | – | 54%
